# Laboratory results: paper PMC11791359, “A select inhibitor of MORC2 encapsulated by chimeric membranecoated DNA nanocage target alleviation TNBC progression” (Materials Today Bio, 2025)
# “Also recorded” adds a separate entry of the source.
# How the values were obtained:
# [1] = system: primary TNBC cell xenograft tumors; assay: In vivo antitumor efficacy, primary TNBC xenograft; parameters: species or system BALB/c nude mice
# Description: Xenograft tumor models were established by injecting primary TNBC cells under the skin of BALB/c nude mice. Then, one week after implantation, the mice were administered with normal saline, Angoline, PMD and PMD (Angoline) respectively via tail vein injection every 3 days. Also, the tumor volume in mice was measured every three days. […] Finally, all mice were sacrificed three weeks later and xenografts were removed. […] Additionally, significant differences in tumor weight were observed among the four groups (Fig. […]). […] Thus, we performed immunofluorescence staining to analyze the expression of Ki-67 in different groups. […] Furthermore, TUNLE staining was performed to evaluate the apoptosis of tumors treated with different drugs (Fig. 5E). […] PMD(Angoline) was prepared by encapsulating Angoline into tDNAn following the assembly steps mentioned above. Tumor-bearing mice were established using primary TNBC cells obtained from patients, following the methods described in the animal assessment section. Then, those mice were intravenously administrated with saline, Angoline, PMD and PMD(Angoline) every 3 days, respectively. Meanwhile, the tumor volume and mice weight were continuously monitored every 3 days. Ultimately, the mice were sacrificed after three weeks to obtain the tumors and vital organs (heart, liver, spleen, lung and kidney). Ki-67 expression was detected by immunofluorescence to determine the tumor growth in different groups. Also, HE staining was used to determine the damage of different drugs to important organs.
# [2] = system: IL6/STAT3 signaling pathway; parameters: method as in PMID 24863036; details: cited from earlier work
# [3] = system: 4T1 cells; assay: CCK8 assay, 4T1; type: cell-based, mouse; details: CCK8, 4T1
# Description: CCK8 assay was performed to confirm the optimal killing concentration of Angoline on TNBC cells (MDA-MB-231, MDA-MB-468, and 4T1) in vitro. […] Thus, we further verified our speculation by detecting the cell viability and apoptosis rate of TNBC cells treated with Angoline and/or apoptosis inhibitor (Z-VAD-FMK). As expected, the toxic effect of Angoline on TNBC cells was reduced by Z-VAD-FMK (Fig. 2F). […] Also, YO-PRO-1 staining confirmed that the proportion of apoptotic cells was reduced when Z-VAD-FMK was added in the Angoline treated group (Fig. 2H). […] While, the detailed pro-apoptotic mechanism needs to be further elucidated.
# [4] = system: MDA-MB-231 cells; assay: CCK8 assay, MDA-MB-231; type: cell-based, human; details: CCK8, MDA-MB-231, 24 h
# Description: MDA-MB-231 and MDA-MB-468 cells were inoculated on 96-well plates with 5×10^3 cells per well, and then different small molecule drugs were added according to study requirements after the cell culture reached the appropriate density. Twenty-four hours after treatment, CCK-8 reagent was added to each well and incubated for 2 hours. Then, the absorbance of each well was measured at 450 nm using an enzyme-labeler to calculate the relative survival rate of cells.
# [5] = system: TNBC cells; assay: Cell cycle by flow cytometry; type: cell-based, human; details: TNBC cells after Angoline treatment
# Description: The treated cells were digested with pancreatic enzymes and then were collected and washed with PBS. The cells were immobilized with pre-cooled 70% ethanol at 4 ℃ for 12-24 hours, and then centrifuged, washed, and suspended to ensure uniform cell dispersion. Propyridine iodide staining solution was added to each cell sample and incubated without light at 37 ℃ for 30 minutes. Subsequently, the labeled cells were subjected to cell cycle analysis using flow cytometer (Beckman Coulter, USA), and the results were processed by FlowJo software. For the apoptosis assay, 1 × 10^5 cells per sample were collected into 1.5 mL centrifuge tubes and were re-suspended with 195 μL Annexin V-FITC binding solution. Then, 5 μL Annexin V-FITC and 10 μL PI dyeing solution were added into every sample to re-suspend the cells and incubated at 20-25 °C for 20 minutes. Flow cytometry was used to detect red fluorescence at 638 nm and green fluorescence at 488 nm, and the apoptosis results were analysed by FlowJo software.
compound,measurement,setting,value
COc1ccc2c(c1OC)C(OC)N(C)c1c-2ccc2cc3c(cc12)OCO3 (centres unmarked) [Angoline],primary tumor growth (tumor volume),"[1]; tail vein injection every 3 days, three weeks",significant suppression of the primary tumor growth
same,apoptosis of tumors (TUNEL staining),[1]; tumor tissue,significantly higher apoptosis rate compared to the groups treated with saline or PMD
same,proliferation capacity of tumor cell (Ki-67 immunofluorescence),[1]; tumor tissue,"significantly lower in the Angoline group than that in saline or PMD groups, but higher than PMD(Angoline) group"
same,body weight,"[1]; tumor-bearing mice, every 3 days",significantly increased
same,suppression of IL6/STAT3 signaling pathway,[2],suppress the IL6/STAT3 signaling pathway
same,inhibitory effect on cell viability,[3],progressively increased with higher concentrations
same,killing effect / inhibitory effect on cell viability,[4],strongest killing effect; also recorded: progressively increased with higher concentrations
same,cell cycle distribution,[5],higher proportion of TNBC cells remained in S and G2 phases
